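Method: 48-hour compound exposure of cells in 96-well plates, five concentrations, linear interpolation of endpoints. The concentration for 50% growth inhibition is given as GI50. TGI: total growth inhibition.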

Among the test systems are UACC-62 melanoma; SF-268 CNS; SR leukemia; OVCAR-8 ovarian; MCF7 breast; OVCAR-4 ovarian; DU-145 prostate; M14 melanoma; COLO 205 colon; SK-MEL-28 melanoma.
Assay in all cases: NCI-60 cell line screen, 48 h

Turning to `CC1(C)CC2(C)OC2C2(C1)N=NC(=Nc1ccccc1)O2` (stereo not given), the GI50 in the assay on UACC-62 melanoma is 3.76 µM; in the assay on SF-268 CNS, 4.9 µM; with SR leukemia, 2.56 µM; with OVCAR-8 ovarian, 2.9 µM; in the assay with MCF7 breast, 1.81 µM; in the assay with OVCAR-4 ovarian it was 3.45 µM. The GI50 was 4.78 µM in the assay on DU-145 prostate, 5.15 µM with M14 melanoma, 10.9 µM in the assay on COLO 205 colon and 11.9 µM in the assay on SK-MEL-28 melanoma. Further, the TGI with UACC-62 melanoma is 16 µM; in the assay on SF-268 CNS it was 19.1 µM; in the assay with SR leukemia it was 8.68 µM; in the assay on OVCAR-8 ovarian, more than 100 µM; in the assay with MCF7 breast, 13.2 µM; with OVCAR-4 ovarian, 17.2 µM. Besides, the TGI in the assay with DU-145 prostate stood at 18.7 µM; in the assay on M14 melanoma, 19.2 µM; in the assay with COLO 205 colon, 24.9 µM; in the assay with SK-MEL-28 melanoma, 27.4 µM.
For `CCCCCCCCCCCCCCCC(=O)OCC1OC(n2ccc(N)nc2=O)C(O)C1O` (stereo not given), the TGI with UACC-62 melanoma was more than 100 µM; in the assay on SF-268 CNS, more than 100 µM; in the assay with SR leukemia, 84.5 µM; in the assay on OVCAR-8 ovarian, more than 100 µM; with MCF7 breast, more than 100 µM; in the assay on OVCAR-4 ovarian, more than 100 µM. Also, the TGI was 67.2 µM in the assay on DU-145 prostate, 33.7 µM in the assay on M14 melanoma, more than 100 µM in the assay with COLO 205 colon and more than 100 µM with SK-MEL-28 melanoma.
Take `C=C(CC1(CC(=C)c2ccc(C(=O)O)cc2)C(=O)N(C)C(=O)N(C)C1=O)c1ccc(C(=O)O)cc1`: the GI50 is 42.7 µM with UACC-62 melanoma; 70.4 µM with SF-268 CNS; 23.9 µM in the assay on SR leukemia; 62.8 µM with OVCAR-8 ovarian; 73.9 µM in the assay on MCF7 breast; 23.2 µM with OVCAR-4 ovarian. For the same molecule, the GI50 with DU-145 prostate was more than 100 µM; in the assay on M14 melanoma, more than 100 µM; with COLO 205 colon, 29.1 µM; in the assay with SK-MEL-28 melanoma, more than 100 µM. Also, the TGI in the assay with UACC-62 melanoma, in the assay with SF-268 CNS, in the assay with SR leukemia, with OVCAR-8 ovarian, in the assay with MCF7 breast and in the assay on OVCAR-4 ovarian was more than 100 µM throughout. The TGI with DU-145 prostate, with M14 melanoma, with COLO 205 colon and in the assay on SK-MEL-28 melanoma was more than 100 µM throughout.
Turning to `O=C(CN=Cc1cccs1)CSC(c1ccccc1)c1ccccc1`, the GI50 with UACC-62 melanoma is 16.2 µM; in the assay on SF-268 CNS it was 50.1 µM; in the assay on SR leukemia, 17.1 µM; in the assay with OVCAR-8 ovarian, 22.6 µM; with MCF7 breast, 18.8 µM; in the assay with OVCAR-4 ovarian, 26.5 µM. Moreover, the GI50 in the assay with DU-145 prostate is 34 µM; in the assay with M14 melanoma, 22 µM; with COLO 205 colon, 11.7 µM; in the assay on SK-MEL-28 melanoma, 27.7 µM. For the same molecule, the TGI in the assay with UACC-62 melanoma is 36.9 µM; in the assay on SF-268 CNS, more than 100 µM; with SR leukemia, 54.1 µM; in the assay on OVCAR-8 ovarian it was 55.5 µM; with MCF7 breast it was 52.6 µM; with OVCAR-4 ovarian, more than 100 µM. For the same molecule, the TGI was more than 100 µM with DU-145 prostate, 55.5 µM in the assay with M14 melanoma, 24 µM in the assay with COLO 205 colon and more than 100 µM in the assay with SK-MEL-28 melanoma.
With `Cc1cc2c(cc1Cl)SC1=NN(C)C(c3ccccc3O)N1S2(=O)=O` (stereo not given), the GI50 in the assay on UACC-62 melanoma is 73.8 µM; with SF-268 CNS, 61.6 µM; in the assay on SR leukemia, 36.6 µM; in the assay on OVCAR-8 ovarian it was 68 µM; in the assay with MCF7 breast it was more than 100 µM; with OVCAR-4 ovarian, 51.5 µM. The GI50 with DU-145 prostate is 65.7 µM; in the assay with M14 melanoma, 47.5 µM; in the assay with COLO 205 colon, more than 100 µM; in the assay on SK-MEL-28 melanoma it was 86.2 µM. Further, the TGI with UACC-62 melanoma, in the assay on SF-268 CNS, with SR leukemia, with OVCAR-8 ovarian, in the assay with MCF7 breast and with OVCAR-4 ovarian was more than 100 µM throughout. The TGI in the assay with DU-145 prostate, in the assay on M14 melanoma, in the assay on COLO 205 colon and in the assay with SK-MEL-28 melanoma was more than 100 µM throughout.
As for `CC(=O)Nc1ccc(-n2cnc3cc(-c4ccc(OCCN5CCCCC5)cc4)ccc32)cc1`, the GI50 in the assay on UACC-62 melanoma was 6.79 µM; in the assay with SF-268 CNS, 5.28 µM; with SR leukemia, 0.895 µM; in the assay with OVCAR-8 ovarian it was 6.07 µM; in the assay with MCF7 breast it was 4.16 µM; in the assay with OVCAR-4 ovarian, 4.85 µM. The GI50 was 10.2 µM in the assay with DU-145 prostate, 5.34 µM in the assay with M14 melanoma, 5.2 µM in the assay on COLO 205 colon and 4.45 µM in the assay with SK-MEL-28 melanoma. For the same molecule, the TGI with UACC-62 melanoma was 13 µM; in the assay on SF-268 CNS it was 11.5 µM; with SR leukemia it was 3.74 µM; in the assay on OVCAR-8 ovarian it was 14.8 µM; with MCF7 breast, 13.6 µM; with OVCAR-4 ovarian, 11.7 µM. Further, the TGI in the assay on DU-145 prostate was more than 33.3 µM; in the assay with M14 melanoma it was 10.4 µM; in the assay with COLO 205 colon, 10.7 µM; in the assay on SK-MEL-28 melanoma, 9.06 µM.
As to `O=C(CC(C(=O)O)N1CCOCC1)c1ccccc1` (stereo not given), the TGI in the assay on UACC-62 melanoma worked out at 29.5 µM; with SF-268 CNS, 44.6 µM; with SR leukemia, 35.5 µM; in the assay on OVCAR-8 ovarian it was 94.8 µM; in the assay on MCF7 breast, 31.2 µM; with OVCAR-4 ovarian, 43.2 µM. Besides, the TGI in the assay on DU-145 prostate stood at 69.4 µM; with M14 melanoma it was 30.8 µM; in the assay on COLO 205 colon, 39.7 µM; in the assay on SK-MEL-28 melanoma, 36.6 µM.
As for `CCCCCCCCCCCCNC(=O)[C@H]1CSC(c2ccc(OC)c(F)c2)N1` (stereo not given in full), the GI50 in the assay with UACC-62 melanoma is 1.45 µM; in the assay with SF-268 CNS it was 0.216 µM; with SR leukemia, 0.324 µM; with OVCAR-8 ovarian, 1.18 µM; in the assay on MCF7 breast, 1.55 µM; in the assay with OVCAR-4 ovarian, 0.699 µM. The GI50 with DU-145 prostate was 0.888 µM; in the assay with M14 melanoma it was 0.191 µM; in the assay with COLO 205 colon it was 1.94 µM; in the assay with SK-MEL-28 melanoma, 0.342 µM. Also, the TGI with UACC-62 melanoma stood at 2.83 µM; in the assay on SF-268 CNS, 0.455 µM; in the assay with SR leukemia it was 1.59 µM; in the assay on OVCAR-8 ovarian, 4.13 µM; in the assay on MCF7 breast it was 3.31 µM; with OVCAR-4 ovarian it was 1.99 µM. Further, the TGI with DU-145 prostate worked out at 2.46 µM; in the assay with M14 melanoma, 0.374 µM; in the assay on COLO 205 colon, 3.84 µM; in the assay with SK-MEL-28 melanoma, 1.11 µM.

These data come from PubChem BioAssay (NCI).
